{
  "source": "patent US20230414599A1",
  "about": "“NICOTINAMIDE, NICOTINAMIDE PRECURSORS AND NICOTINAMIDE METABOLITES AND COMPOSITIONS THEREOF FOR REDUCING THE TIME TO RESOLUTION OF SYMPTOMS IN PATIENTS WITH COVID-19 AND OTHER VIRAL INFECTIONS” (CONARIS RESEARCH INSTITUTE AG, priority 2020, published 2023)",
  "tested_on": "COVID-19",
  "assay": "COVit-1 trial expanded to 56 patients (nicotinamide vs silica)",
  "type": "in vivo",
  "settings": "for Absolute Risk difference of being symptom-free, 95% Confidence Level: nicotinamide vs silica; for Relative Risk of being symptom-free: silica = REF",
  "key": {"[1]": {"settings": "baseline, before supplementation, n = 28"}, "[2]": {"settings": "reduction at week 2 vs baseline, generalized linear mixed model"}, "[3]": {"settings": "week 2, 1,000 mg/day immediate-release, n = 28"}},
  "data": [
    {"smiles": "NC(=O)c1cccnc1", "note": "[Nicotinamide, nicotinamide]", "values": [
      {"measurement": "Chest pain, patients with symptom", "setting": "[1]", "result": 25.0, "unit": "%"},
      {"measurement": "Cough with sputum, patients with symptom", "setting": "[1]", "result": 25.0, "unit": "%"},
      {"measurement": "Cough, patients with symptom", "setting": "[1]", "result": 71.4, "unit": "%"},
      {"measurement": "Diarrhoea, patients with symptom", "setting": "[1]", "result": 28.6, "unit": "%"},
      {"measurement": "Fatigue, patients with symptom", "setting": "[1]", "result": 82.1, "unit": "%"},
      {"measurement": "Fever, patients with symptom", "setting": "[1]", "result": 50.0, "unit": "%"},
      {"measurement": "Head cold (rhinorrhoea), patients with symptom", "setting": "[1]", "result": 78.6, "unit": "%"},
      {"measurement": "Headache, patients with symptom", "setting": "[1]", "result": 78.6, "unit": "%"},
      {"measurement": "Impaired sense of smell, patients with symptom", "setting": "[1]", "result": 60.7, "unit": "%"},
      {"measurement": "Impaired sense of taste, patients with symptom", "setting": "[1]", "result": 64.3, "unit": "%"},
      {"measurement": "Joint pain, patients with symptom", "setting": "[1]", "result": 35.7, "unit": "%"},
      {"measurement": "Loss of appetite, patients with symptom", "setting": "[1]", "result": 42.9, "unit": "%"},
      {"measurement": "Muscle pain, patients with symptom", "setting": "[1]", "result": 50.0, "unit": "%"},
      {"measurement": "Other (individually reported) symptoms, patients with symptom", "setting": "[1]", "result": 28.6, "unit": "%"},
      {"measurement": "Reduced physical performance, patients with symptom", "setting": "[1]", "result": 82.1, "unit": "%"},
      {"measurement": "Shortness of breath, patients with symptom", "setting": "[1]", "result": 28.6, "unit": "%"},
      {"measurement": "Sore throat, patients with symptom", "setting": "[1]", "result": 35.7, "unit": "%"},
      {"measurement": "Vomiting, patients with symptom", "setting": "[1]", "result": 3.6, "unit": "%"},
      {"measurement": "Loss of appetite, OR estimate nicotinamide vs. silica", "setting": "reduction at week 2 vs baseline, footnote: OR very high", "result": ">>^‡"},
      {"measurement": "Vomiting, OR estimate nicotinamide vs. silica", "setting": "reduction at week 2 vs baseline, footnote: OR very high (unstable due to the small sample)", "result": ">>^‡‡"},
      {"measurement": "Chest pain, OR estimate nicotinamide vs. silica", "setting": "[2]", "result": 12.7},
      {"measurement": "Cough with sputum, OR estimate nicotinamide vs. silica", "setting": "[2]", "result": 4.64},
      {"measurement": "Cough, OR estimate nicotinamide vs. silica", "setting": "[2]", "result": 1.01},
      {"measurement": "Diarrhoea, OR estimate nicotinamide vs. silica", "setting": "[2]", "result": 0.84},
      {"measurement": "Fatigue, OR estimate nicotinamide vs. silica", "setting": "[2]", "result": 2.72},
      {"measurement": "Fever, OR estimate nicotinamide vs. silica", "setting": "[2]", "result": 1.40},
      {"measurement": "Head cold (rhinorrhoea), OR estimate nicotinamide vs. silica", "setting": "[2]", "result": 1.41},
      {"measurement": "Headache, OR estimate nicotinamide vs. silica", "setting": "[2]", "result": 1.27},
      {"measurement": "Impaired sense of smell, OR estimate nicotinamide vs. silica", "setting": "[2]", "result": 2.05},
      {"measurement": "Impaired sense of taste, OR estimate nicotinamide vs. silica", "setting": "[2]", "result": 1.24},
      {"measurement": "Joint pain, OR estimate nicotinamide vs. silica", "setting": "[2]", "result": 2.74},
      {"measurement": "Muscle pain, OR estimate nicotinamide vs. silica", "setting": "[2]", "result": 1.09},
      {"measurement": "Other (individually reported) symptoms, OR estimate nicotinamide vs. silica", "setting": "[2]", "result": 1.07},
      {"measurement": "Reduced physical performance, OR estimate nicotinamide vs. silica", "setting": "[2]", "result": 1.19},
      {"measurement": "Shortness of breath, OR estimate nicotinamide vs. silica", "setting": "[2]", "result": 1.45},
      {"measurement": "Sore throat, OR estimate nicotinamide vs. silica", "setting": "[2]", "result": 9.25},
      {"measurement": "Chest pain, patients with symptom", "setting": "[3]", "result": 3.9, "unit": "%"},
      {"measurement": "Cough with sputum, patients with symptom", "setting": "[3]", "result": 3.9, "unit": "%"},
      {"measurement": "Cough, patients with symptom", "setting": "[3]", "result": 19.2, "unit": "%"},
      {"measurement": "Diarrhoea, patients with symptom", "setting": "[3]", "result": 7.7, "unit": "%"},
      {"measurement": "Fatigue, patients with symptom", "setting": "[3]", "result": 30.8, "unit": "%"},
      {"measurement": "Fever, patients with symptom", "setting": "[3]", "result": 3.9, "unit": "%"},
      {"measurement": "Head cold (rhinorrhoea), patients with symptom", "setting": "[3]", "result": 19.2, "unit": "%"},
      {"measurement": "Headache, patients with symptom", "setting": "[3]", "result": 19.2, "unit": "%"},
      {"measurement": "Impaired sense of smell, patients with symptom", "setting": "[3]", "result": 23.1, "unit": "%"},
      {"measurement": "Impaired sense of taste, patients with symptom", "setting": "[3]", "result": 23.1, "unit": "%"},
      {"measurement": "Joint pain, patients with symptom", "setting": "[3]", "result": 3.9, "unit": "%"},
      {"measurement": "Loss of appetite, patients with symptom", "setting": "[3]", "result": 0.0, "unit": "%"},
      {"measurement": "Muscle pain, patients with symptom", "setting": "[3]", "result": 3.9, "unit": "%"},
      {"measurement": "Other (individually reported) symptoms, patients with symptom", "setting": "[3]", "result": 15.4, "unit": "%"},
      {"measurement": "Reduced physical performance, patients with symptom", "setting": "[3]", "result": 34.6, "unit": "%"},
      {"measurement": "Shortness of breath, patients with symptom", "setting": "[3]", "result": 26.9, "unit": "%"},
      {"measurement": "Sore throat, patients with symptom", "setting": "[3]", "result": 3.9, "unit": "%"},
      {"measurement": "Vomiting, patients with symptom", "setting": "[3]", "result": 0.0, "unit": "%"},
      {"measurement": "Symptom-free, %", "setting": "week 2, all COVID-19 patients, n = 28, intention to treat", "result": 35.7, "unit": "%"},
      {"measurement": "Absolute Risk difference of being symptom-free, 95% Confidence Level", "setting": "week 2, all patients", "result": "21.4 (−0.6; 43.4) %"},
      {"measurement": "Relative Risk of being symptom-free", "setting": "week 2, all patients", "result": 2.50},
      {"measurement": "Symptom-free, %", "setting": "week 2, female patients, n = 17", "result": 47.1, "unit": "%"},
      {"measurement": "Absolute Risk difference of being symptom-free, 95% Confidence Level", "setting": "week 2, female patients", "result": "35.9 (8.1-63.8) ^ %"},
      {"measurement": "Relative Risk of being symptom-free", "setting": "week 2, female patients", "result": 4.24},
      {"measurement": "Symptom-free, %", "setting": "week 2, male patients, n = 11", "result": 18.2, "unit": "%"},
      {"measurement": "Absolute Risk difference of being symptom-free, 95% Confidence Level", "setting": "week 2, male patients", "result": "1.8 (−35.5; 31.9) %"},
      {"measurement": "Relative Risk of being symptom-free", "setting": "week 2, male patients", "result": 0.91},
      {"measurement": "Time from diagnosis to symptom-free, median", "setting": "week 2 analysis, all patients", "result": 11.0, "unit": "days"},
      {"measurement": "Time from diagnosis to symptom-free, median", "setting": "week 2 analysis, female patients", "result": 10.5, "unit": "days"},
      {"measurement": "Time from diagnosis to symptom-free, median", "setting": "week 2 analysis, male patients", "result": 13.0, "unit": "days"},
      {"measurement": "Symptom-free, %", "setting": "week 4, all COVID-19 patients, n = 28, intention to treat", "result": 39.3, "unit": "%"},
      {"measurement": "Absolute Risk difference of being symptom-free, 95% Confidence Level", "setting": "week 4, all patients", "result": "−3.57 (−22.2; 29.3) %"},
      {"measurement": "Relative Risk of being symptom-free", "setting": "week 4, all patients", "result": 0.92},
      {"measurement": "Symptom-free, %", "setting": "week 4, female patients, n = 17", "result": 52.9, "unit": "%"},
      {"measurement": "Absolute Risk difference of being symptom-free, 95% Confidence Level", "setting": "week 4, female patients", "result": "2.94 (−30.2; 36.1) %"},
      {"measurement": "Relative Risk of being symptom-free", "setting": "week 4, female patients", "result": 1.06},
      {"measurement": "Symptom-free, %", "setting": "week 4, male patients, n = 11", "result": 18.2, "unit": "%"},
      {"measurement": "Absolute Risk difference of being symptom-free, 95% Confidence Level", "setting": "week 4, male patients", "result": "−0.12 (−48.2; 24.6) %"},
      {"measurement": "Relative Risk of being symptom-free", "setting": "week 4, male patients", "result": 0.61},
      {"measurement": "Median time to resolution of symptoms compared to silica", "setting": "week 4, n = 28 per group", "result": "approximately half as long"},
      {"measurement": "Time from diagnosis to symptom-free, median", "setting": "week 4 analysis, all patients", "result": 13.0, "unit": "days"},
      {"measurement": "Time from diagnosis to symptom-free, median", "setting": "week 4 analysis, female patients", "result": 13.0, "unit": "days"},
      {"measurement": "Time from diagnosis to symptom-free, median", "setting": "week 4 analysis, male patients", "result": 16.5, "unit": "days"}
    ]}
  ]
}
